A short description of series [1]: Compound cytotoxicity, XTT-based colorimetric assay. Conditions: human; uninfected MT2 cells, day 4, XTT. The format is cell-based. On the procedure: Compound cytotoxicity and the corresponding CC50 values were determined using the same protocol as described in the antiviral assay except that uninfected cells were used. Cytotoxicity was assessed on day 4 in uninfected MT2 cells by using an XTT (2,3-bis[2-Methoxy-4-nitro-5-sulfophenyl]-2H-tetrazolium-5-carboxyanilide inner salt)-based colorimetric assay (Sigma-Aldrich, St Louis, Mo.).
(In general: Tetrazolium dyes change colour on reduction, which living cells bring about.)

For series [2], the system named is recombinant NL4-3 virus (Renilla luciferase in nef). In words: HIV cell culture assay (antiviral activity, luciferase readout in MT-2 cells). The format is cell-based. Conditions: Renilla, NL43. An outline of the steps: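 MT-2 cells were infected for 4-5 days with 293T-derived recombinant NL4-3 reporter virus in the presence of serially diluted compound. Antiviral activity was quantified as luciferase activity using a live-cell substrate. EC50 was derived from the median effect equation.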

Molecules are shown by their SMILES.

A word on the CC50: it is the concentration that lowers cell viability or growth by half. A high value points to better tolerance by the cells. Broadly, the EC50 is the concentration giving half of the maximal effect. For `Cc1cc(-c2ccc3c(=O)n(-c4ccc(Cl)c5c(NS(C)(=O)=O)nn(C)c45)c([C@H](Cc4cc(F)cc(F)c4)NC(=O)Cn4nc(C(F)F)c5c4C(F)(F)[C@@H]4C[C@H]54)nc3c2)nn1CC(C)(F)F` (atropisomer, axis not shown; (P)) [Example 68, N—((S)-1-((3P)-3-(4-chloro-1-methyl-3-(methylsulfonamido)-1H-indazol-7-yl)-7-(1-(2,2-difluoropropyl)-5-methyl-1H-pyrazol-3-yl)-4-oxo-3,4-dihydroquinazolin-2-yl)-2-(3,5-difluorophenyl)ethyl)-2-((3bS,4aR)-3-(difluoromethyl)-5,5-difluoro-3b,4,4a,5-tetrahydro-1H-cyclopropa[3,4]cyclopenta[1,2-c]pyrazol-1-yl)acetamide], in series [1], the cytotoxic concentration (CC50) at 4 days is greater than 100 nM. For the same compound, the EC50 in series [2] was 0.096 nM.
On the same counts, the results for `Cn1nccc1-c1ccc2c(=O)n(-c3ccc(Cl)c4c(NS(C)(=O)=O)nn(C)c34)c([C@H](Cc3cc(F)cc(F)c3)NC(=O)Cn3nc(C(F)F)c4c3C(F)(F)[C@@H]3C[C@H]43)nc2c1` (atropisomer, axis not shown; (P)) [Example 20, N—((S)-1-((3P)-3-(4-chloro-1-methyl-3-(methylsulfonamido)-1H-indazol-7-yl)-7-(1-methyl-1H-pyrazol-5-yl)-4-oxo-3,4-dihydroquinazolin-2-yl)-2-(3,5-difluorophenyl)ethyl)-2-((3bS,4aR)-3-(difluoromethyl)-5,5-difluoro-3b,4,4a,5-tetrahydro-1H-cyclopropa[3,4]cyclopenta[1,2-c]pyrazol-1-yl)acetamide] are greater than 500 nM and 0.056 nM.
On the same counts, the results for `Cn1nc(NS(C)(=O)=O)c2c(Cl)ccc(-n3c([C@H](Cc4cc(F)cc(F)c4)NC(=O)Cn4nc(C(F)F)c5c4C(F)(F)[C@H]4C[C@@H]54)nc4cc(-c5ccnn5C5CC5)ccc4c3=O)c21` (atropisomer, axis not shown; (P)) [Example 43, N—((S)-1-((3P)-3-(4-chloro-1-methyl-3-(methylsulfonamido)-1H-indazol-7-yl)-7-(1-cyclopropyl-1H-pyrazol-5-yl)-4-oxo-3,4-dihydroquinazolin-2-yl)-2-(3,5-difluorophenyl)ethyl)-2-((3bS,4aR)-3-(difluoromethyl)-5,5-difluoro-3b,4,4a,5-tetrahydro-1H-cyclopropa[3,4]cyclopenta[1,2-c]pyrazol-1-yl)acetamide] are greater than 100 nM and 0.13 nM.
On the same counts, the results for `Cc1cc(-c2ccc3c(=O)n(-c4ccc(Cl)c5c(NS(C)(=O)=O)nn(C)c45)c([C@H](Cc4cc(F)cc(F)c4)NC(=O)Cn4nc(C(F)F)c5c4C(F)(F)[C@@H]4C[C@H]54)nc3c2)nc(C(F)(F)F)n1` (atropisomer, axis not shown; (P)) [Example 26, N—((S)-1-((3P)-3-(4-chloro-1-methyl-3-(methylsulfonamido)-1H-indazol-7-yl)-7-(6-methyl-2-(trifluoromethyl)pyrimidin-4-yl)-4-oxo-3,4-dihydroquinazolin-2-yl)-2-(3,5-difluorophenyl)ethyl)-2-((3bS,4aR)-3-(difluoromethyl)-5,5-difluoro-3b,4,4a,5-tetrahydro-1H-cyclopropa[3,4]cyclopenta[1,2-c]pyrazol-1-yl)acetamide] are greater than 100 nM and 0.087 nM.
In series [1], `Cn1nc(NS(C)(=O)=O)c2c(Cl)ccc(-n3c([C@H](Cc4cc(F)cc(F)c4)NC(=O)Cn4nc(C(F)F)c5c4C(F)(F)[C@@H]4C[C@H]54)nc4cc(-n5nccc5C(F)(F)F)ccc4c3=O)c21` (atropisomer, axis not shown; (P)) [Example 32, N—((S)-1-((3P)-3-(4-chloro-1-methyl-3-(methylsulfonamido)-1H-indazol-7-yl)-4-oxo-7-(5-(trifluoromethyl)-1H-pyrazol-1-yl)-3,4-dihydroquinazolin-2-yl)-2-(3,5-difluorophenyl)ethyl)-2-((3bS,4aR)-3-(difluoromethyl)-5,5-difluoro-3b,4,4a,5-tetrahydro-1H-cyclopropa[3,4]cyclopenta[1,2-c]pyrazol-1-yl)acetamide] had a half-maximal cytotoxic concentration (CC50) at 4 days greater than 100 nM. Besides, in series [2], the EC50 turned out to be 0.079 nM.
In the same order, the values of `Cn1nc(NS(C)(=O)=O)c2c(Cl)ccc(-n3c([C@H](Cc4cc(F)cc(F)c4)NC(=O)Cn4nc(C(F)F)c5c4C(F)(F)[C@@H]4C[C@H]54)nc4cc(-c5nccnc5C(F)(F)F)ccc4c3=O)c21` (atropisomer, axis not shown; (P)) [Example 23, N—((S)-1-((3P)-3-(4-chloro-1-methyl-3-(methylsulfonamido)-1H-indazol-7-yl)-4-oxo-7-(3-(trifluoromethyl)pyrazin-2-yl)-3,4-dihydroquinazolin-2-yl)-2-(3,5-difluorophenyl)ethyl)-2-((3bS,4aR)-3-(difluoromethyl)-5,5-difluoro-3b,4,4a,5-tetrahydro-1H-cyclopropa[3,4]cyclopenta[1,2-c]pyrazol-1-yl)acetamide] are greater than 100 nM and 0.071 nM.
On the same counts, the results for `Cn1nc(NS(C)(=O)=O)c2c(Cl)ccc(-n3c([C@H](Cc4cc(F)cc(F)c4)NC(=O)Cn4nc(C(F)F)c5c4C(F)(F)[C@@H]4C[C@H]54)nc4cc(-c5cccc(C(F)F)c5F)ccc4c3=O)c21` (atropisomer, axis not shown; (P)) [Example 18, N—((S)-1-((3P)-3-(4-chloro-1-methyl-3-(methylsulfonamido)-1H-indazol-7-yl)-7-(3-(difluoromethyl)-2-fluorophenyl)-4-oxo-3,4-dihydroquinazolin-2-yl)-2-(3,5-difluorophenyl)ethyl)-2-((3bS,4aR)-3-(difluoromethyl)-5,5-difluoro-3b,4,4a,5-tetrahydro-1H-cyclopropa[3,4]cyclopenta[1,2-c]pyrazol-1-yl)acetamide] are greater than 500 nM and 0.54 nM.
As for `Cn1nc(NS(C)(=O)=O)c2c(Cl)ccc(-n3c([C@H](Cc4cc(F)cc(F)c4)NC(=O)Cn4nc(C(F)F)c5c4C(F)(F)[C@@H]4C[C@H]54)nc4cc(-c5ccnc(CF)n5)ccc4c3=O)c21` (atropisomer, axis not shown; (P)) [Example 55, N—((S)-1-((3P)-3-(4-chloro-1-methyl-3-(methylsulfonamido)-1H-indazol-7-yl)-7-(2-(fluoromethyl)pyrimidin-4-yl)-4-oxo-3,4-dihydroquinazolin-2-yl)-2-(3,5-difluorophenyl)ethyl)-2-((3bS,4aR)-3-(difluoromethyl)-5,5-difluoro-3b,4,4a,5-tetrahydro-1H-cyclopropa[3,4]cyclopenta[1,2-c]pyrazol-1-yl)acetamide], the cytotoxic concentration (CC50) at 4 days in series [1] is greater than 100 nM. The half-maximal effective concentration (EC50) in series [2] was found to be 0.056 nM.
`Cn1nc(NS(C)(=O)=O)c2c(Cl)ccc(-n3c([C@H](Cc4cc(F)cc(F)c4)NC(=O)Cn4nc(C(F)F)c5c4C(F)(F)[C@@H]4C[C@H]54)nc4cc(-c5csc(C(F)(F)F)n5)ccc4c3=O)c21` (atropisomer, axis not shown; (P)) [Example 1, N—((S)-1-((3P)-3-(4-chloro-1-methyl-3-(methylsulfonamido)-1H-indazol-7-yl)-4-oxo-7-(2-(trifluoromethyl)thiazol-4-yl)-3,4-dihydroquinazolin-2-yl)-2-(3,5-difluorophenyl)ethyl)-2-((3bS,4aR)-3-(difluoromethyl)-5,5-difluoro-3b,4,4a,5-tetrahydro-1H-cyclopropa[3,4]cyclopenta[1,2-c]pyrazol-1-yl)acetamide]: the CC50 at 4 days in series [1] is greater than 100 nM. Further, the 50% effective concentration (EC50) in series [2] worked out at 0.091 nM.
On the same counts, the results for `Cn1nc(NS(C)(=O)=O)c2c(Cl)ccc(-n3c([C@H](Cc4cc(F)cc(F)c4)NC(=O)Cn4nc(C(F)F)c5c4C(F)(F)[C@H]4C[C@H]54)nc4cc(-c5cnn(C(F)F)c5)ccc4c3=O)c21` (atropisomer, axis not shown; (P)) [Example 35, N—((S)-1-((3P)-3-(4-chloro-1-methyl-3-(methylsulfonamido)-1H-indazol-7-yl)-7-(1-(difluoromethyl)-1H-pyrazol-4-yl)-4-oxo-3,4-dihydroquinazolin-2-yl)-2-(3,5-difluorophenyl)ethyl)-2-((3bS,4aR)-3-(difluoromethyl)-5,5-difluoro-3b,4,4a,5-tetrahydro-1H-cyclopropa[3,4]cyclopenta[1,2-c]pyrazol-1-yl)acetamide] are greater than 100 nM and 0.092 nM.
In series [1], `Cn1nc(NS(C)(=O)=O)c2c(Cl)ccc(-n3c([C@H](Cc4cc(F)cc(F)c4)NC(=O)Cn4nc(C(F)F)c5c4C(F)(F)[C@@H]4C[C@H]54)nc4cc(-n5cc(C(F)(F)F)cn5)ccc4c3=O)c21` (atropisomer, axis not shown; (P)) [Example 38, N—((S)-1-((3P)-3-(4-chloro-1-methyl-3-(methylsulfonamido)-1H-indazol-7-yl)-4-oxo-7-(4-(trifluoromethyl)-1H-pyrazol-1-yl)-3,4-dihydroquinazolin-2-yl)-2-(3,5-difluorophenyl)ethyl)-2-((3bS,4aR)-3-(difluoromethyl)-5,5-difluoro-3b,4,4a,5-tetrahydro-1H-cyclopropa[3,4]cyclopenta[1,2-c]pyrazol-1-yl)acetamide] showed a 50% cytotoxic concentration (CC50) at 4 days greater than 100 nM. Besides, the EC50 in series [2] was 0.17 nM.

(Values after patent US20230013823A1, “INHIBITORS OF HUMAN IMMUNODEFICIENCY VIRUS REPLICATION” (VIV HEALTHCARE UK (No. 5) LIMITED, priority 2019, published 2023).)
